Results reported in the Kinase Knowledgebase extract (Sharma et al. 2016).

Columns and labels:
PIK3CD (Human) = PIK3CD (Human) (UniProt O00329); assay: Enzyme Assay
PIK3CG (human) = PIK3CG (human) (UniProt P48736); assay: Enzyme Assay
PIK3CG (human), sequence (P48736 whole entry, looked up): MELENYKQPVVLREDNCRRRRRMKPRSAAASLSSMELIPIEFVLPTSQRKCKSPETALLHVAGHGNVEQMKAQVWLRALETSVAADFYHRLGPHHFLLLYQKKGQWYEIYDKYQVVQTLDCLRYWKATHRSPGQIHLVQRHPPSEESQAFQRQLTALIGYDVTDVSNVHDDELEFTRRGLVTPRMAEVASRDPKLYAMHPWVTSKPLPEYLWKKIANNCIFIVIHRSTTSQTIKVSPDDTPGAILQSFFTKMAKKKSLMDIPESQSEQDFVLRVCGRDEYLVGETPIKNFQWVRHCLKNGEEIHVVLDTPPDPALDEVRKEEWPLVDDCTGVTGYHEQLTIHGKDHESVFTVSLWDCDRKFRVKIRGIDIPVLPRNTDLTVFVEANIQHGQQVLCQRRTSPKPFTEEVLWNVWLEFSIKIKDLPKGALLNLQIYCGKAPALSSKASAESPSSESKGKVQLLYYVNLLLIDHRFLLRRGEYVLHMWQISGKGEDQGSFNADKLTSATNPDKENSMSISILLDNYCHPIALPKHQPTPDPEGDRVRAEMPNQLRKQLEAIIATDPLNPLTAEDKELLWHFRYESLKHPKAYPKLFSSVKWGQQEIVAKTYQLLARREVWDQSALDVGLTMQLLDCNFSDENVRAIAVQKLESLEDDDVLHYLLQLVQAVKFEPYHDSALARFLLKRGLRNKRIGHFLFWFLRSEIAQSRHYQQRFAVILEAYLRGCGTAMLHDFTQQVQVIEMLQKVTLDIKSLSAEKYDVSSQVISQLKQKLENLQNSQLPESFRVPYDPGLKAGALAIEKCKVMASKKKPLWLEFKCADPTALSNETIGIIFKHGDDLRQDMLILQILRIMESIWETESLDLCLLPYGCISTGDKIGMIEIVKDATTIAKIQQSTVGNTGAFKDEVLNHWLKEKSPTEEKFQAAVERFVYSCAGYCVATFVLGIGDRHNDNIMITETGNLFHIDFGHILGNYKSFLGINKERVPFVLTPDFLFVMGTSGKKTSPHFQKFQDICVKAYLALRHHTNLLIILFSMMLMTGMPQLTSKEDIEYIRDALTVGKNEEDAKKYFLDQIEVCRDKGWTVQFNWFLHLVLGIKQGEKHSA

PIK3CD (Human), sequence (O00329 whole entry, looked up): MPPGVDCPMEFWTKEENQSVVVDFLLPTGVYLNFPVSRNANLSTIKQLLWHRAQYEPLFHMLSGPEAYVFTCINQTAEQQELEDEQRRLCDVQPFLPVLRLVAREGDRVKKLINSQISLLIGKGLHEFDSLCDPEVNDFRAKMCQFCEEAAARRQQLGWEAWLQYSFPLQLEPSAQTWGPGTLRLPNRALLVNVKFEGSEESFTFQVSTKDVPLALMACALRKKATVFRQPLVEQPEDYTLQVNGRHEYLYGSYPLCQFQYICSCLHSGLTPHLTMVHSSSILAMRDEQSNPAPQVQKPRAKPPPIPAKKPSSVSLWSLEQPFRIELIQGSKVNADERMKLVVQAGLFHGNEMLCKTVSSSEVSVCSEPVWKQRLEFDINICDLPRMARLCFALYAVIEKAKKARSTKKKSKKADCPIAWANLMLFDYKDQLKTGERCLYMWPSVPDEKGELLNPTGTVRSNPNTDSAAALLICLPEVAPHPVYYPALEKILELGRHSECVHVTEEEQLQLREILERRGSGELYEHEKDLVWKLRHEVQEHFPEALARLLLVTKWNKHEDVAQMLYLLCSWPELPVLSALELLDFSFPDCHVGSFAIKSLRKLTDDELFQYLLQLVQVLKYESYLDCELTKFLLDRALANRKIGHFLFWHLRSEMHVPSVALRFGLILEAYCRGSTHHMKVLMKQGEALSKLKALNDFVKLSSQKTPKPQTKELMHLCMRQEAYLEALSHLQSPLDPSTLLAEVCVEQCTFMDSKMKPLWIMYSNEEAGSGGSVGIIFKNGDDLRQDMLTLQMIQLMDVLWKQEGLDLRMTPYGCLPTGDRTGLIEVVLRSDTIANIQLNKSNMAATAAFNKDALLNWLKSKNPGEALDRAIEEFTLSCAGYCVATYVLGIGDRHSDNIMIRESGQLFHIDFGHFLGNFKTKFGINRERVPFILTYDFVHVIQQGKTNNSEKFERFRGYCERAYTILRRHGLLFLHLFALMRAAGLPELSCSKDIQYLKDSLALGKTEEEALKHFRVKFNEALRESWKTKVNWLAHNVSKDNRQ

For `CCC(Nc1nc(N)nc(C)c1/C=C/C(=O)Nc1nccs1)c1nc2cccc(C)c2c(=O)n1-c1ccccc1` (configuration not stated), the IC50 (PIK3CD (Human)) was less than 10 nM.
In the case of `CCC(Nc1nc(N)ncc1-c1cncc(S(=O)(=O)N2CCCC2)c1)c1nc2cccc(F)c2c(=O)n1-c1ccccc1` (configuration not stated), the IC50 (PIK3CG (human)) is reported as less than 20 nM and the IC50 (PIK3CD (Human)) is reported as less than 20 nM.
`CCC(Nc1nc(N)nc(C)c1/C=C/C(=O)Nc1cccc(C)n1)c1nc2cccc(C)c2c(=O)n1-c1ccccc1` (configuration not stated) gave an IC50 (PIK3CD (Human)) of less than 10 nM.
For `CCC(Nc1nc(N)nc(C)c1/C=C/C(=O)NC)c1nc2cccc(C)c2c(=O)n1-c1ccccc1` (configuration not stated), the IC50 (PIK3CD (Human)) was less than 10 nM.
Compound `CCC(Nc1nc(N)nc(C)c1/C=C/C(=O)n1cccn1)c1nc2cccc(C)c2c(=O)n1-c1ccccc1` (configuration not stated) has an IC50 (PIK3CD (Human)) of 10 to 100 nM.
For `CCNC(=O)/C=C/c1c(C)nc(N)nc1NC(CC)c1nc2cccc(C)c2c(=O)n1-c1ccccc1` (configuration not stated), the IC50 (PIK3CD (Human)) was 10 to 100 nM.
Work on `CCC(Nc1nc(N)nc(C)c1/C=C/C(=O)Nc1ccccn1)c1nc2cccc(C)c2c(=O)n1-c1ccccc1` (configuration not stated) yielded an IC50 (PIK3CD (Human)) of less than 10 nM.
Compound `CCC(Nc1nc(N)ncc1-c1cncc(S(N)(=O)=O)c1)c1nc2cccc(F)c2c(=O)n1-c1ccccc1` (configuration not stated) has an IC50 (PIK3CG (human)) of 20 to 100 nM and an IC50 (PIK3CD (Human)) of 20 to 100 nM.
In the case of `C=Cc1c(C)nc(N)nc1NC(CC)c1nc2cccc(C)c2c(=O)n1-c1ccccc1` (configuration not stated), the IC50 (PIK3CD (Human)) is reported as 10 to 100 nM.
`CCC(Nc1nc(N)nc(C)c1/C=C/C(=O)N1CCOCC1)c1nc2cccc(C)c2c(=O)n1-c1ccccc1` (configuration not stated) was tested, and the IC50 (PIK3CD (Human)) was less than 10 nM.
Compound `CCC(Nc1nc(N)nc(C)c1/C=C/C(=O)NC(C)C)c1nc2cccc(C)c2c(=O)n1-c1ccccc1` (configuration not stated) has an IC50 (PIK3CD (Human)) of 10 to 100 nM.
`CCC(Nc1nc(N)nc(C)c1-c1cncc(S(N)(=O)=O)c1)c1nc2cccc(F)c2c(=O)n1-c1ccccc1` (configuration not stated) showed an IC50 (PIK3CG (human)) of 100 to 1000 nM and an IC50 (PIK3CD (Human)) of 20 to 100 nM.
Work on `CCC(Nc1nc(N)nc(C)c1/C=C/C(=O)Nc1cccnc1)c1nc2cccc(C)c2c(=O)n1-c1ccccc1` (configuration not stated) yielded an IC50 (PIK3CD (Human)) of less than 10 nM.
`CCC(Nc1nc(N)ncc1-c1cncc(S(=O)(=O)Nc2ccc(F)c(Cl)c2)c1)c1nc2cccc(F)c2c(=O)n1-c1ccccc1` (configuration not stated) gave an IC50 (PIK3CG (human)) of 20 to 100 nM and an IC50 (PIK3CD (Human)) of less than 20 nM.
In the case of `CCC(Nc1nc(N)nc(C)c1/C=C/C(N)=O)c1nc2cccc(C)c2c(=O)n1-c1ccccc1` (configuration not stated), the IC50 (PIK3CD (Human)) is reported as less than 10 nM.
Compound `CCC(Nc1nc(N)ncc1-c1cncc(S(=O)(=O)C(C)C)c1)c1nc2cccc(F)c2c(=O)n1-c1ccccc1` (configuration not stated) has an IC50 (PIK3CG (human)) of 100 to 1000 nM and an IC50 (PIK3CD (Human)) of 20 to 100 nM.
`CCC(Nc1nc(N)nc(C)c1/C=C/C(=O)N1CCNCC1)c1nc2cccc(C)c2c(=O)n1-c1ccccc1` (configuration not stated) gave an IC50 (PIK3CD (Human)) of 10 to 100 nM.
In the case of `CCC(Nc1nc(N)nc(C)c1/C=C/C(=O)Nc1ccncc1)c1nc2cccc(C)c2c(=O)n1-c1ccccc1` (configuration not stated), the IC50 (PIK3CD (Human)) is reported as 10 to 100 nM.
`CCC(Nc1nc(N)ncc1-c1cncc(S(=O)(=O)NC(C)(C)C)c1)c1nc2cccc(C)c2c(=O)n1-c1ccccc1` (configuration not stated) showed an IC50 (PIK3CG (human)) of 20 to 100 nM and an IC50 (PIK3CD (Human)) of less than 20 nM.
In the case of `CCC(Nc1nc(N)ncc1-c1cncc(S(=O)(=O)N(C)C)c1)c1nc2cccc(F)c2c(=O)n1-c1ccccc1` (configuration not stated), the IC50 (PIK3CG (human)) is reported as 20 to 100 nM and the IC50 (PIK3CD (Human)) is reported as 20 to 100 nM.
Work on `CCC(Nc1nc(N)ncc1-c1cncc(S(=O)(=O)Nc2ccccc2F)c1)c1nc2cccc(F)c2c(=O)n1-c1ccccc1` (configuration not stated) yielded an IC50 (PIK3CG (human)) of 20 to 100 nM and an IC50 (PIK3CD (Human)) of less than 20 nM.
For `CCC(Nc1nc(N)ncc1-c1cncc(S(=O)(=O)Nc2ccccc2C)c1)c1nc2cccc(F)c2c(=O)n1-c1ccccc1` (configuration not stated), the IC50 (PIK3CG (human)) was 100 to 1000 nM and the IC50 (PIK3CD (Human)) was less than 20 nM.
Compound `CCC(Nc1nc(N)nc(C)c1/C=C1\CC(=O)NC1=O)c1nc2cccc(C)c2c(=O)n1-c1ccccc1` (configuration not stated) has an IC50 (PIK3CD (Human)) of 10 to 100 nM.
